Key:
[1] = target: T1, human MCHR1 (Homo sapiens, UniProt Q99705); assay: Human MCH receptor 1 (MCHR1) competitive binding assay, [125I]-MCH(4-19), CHO cell membrane fraction; details: test compound 0.1 μM, human MCHR1-expressing CHO cell membrane, 25° C., 1 hr, read-out: Binding inhibition rate (0.1 μM)
T1 construct: expressed in transfected cells; host or cells: CHO cell clone 57 (membrane fraction)
Procedure: Determination of Human MCH Receptor 1 (MCHR1) Competitive Inhibitory Activity of Test Compound Using Binding Assay
Using human MCHR1(=SLC-1 receptor)-expressing CHO cell clone 57 and rat MCHR1-expressing CHO cell clone 44 described in WO01/82925, MCHR1-expressing CHO cellular membrane fractions were prepared by the following method. In phosphate buffered saline (pH 7.4) supplemented with 5 mM EDTA (ethylenediaminetetraacetic acid) were respectively suspended human and rat MCHR1-expressing CHO cells (1×10^8 cells) and centrifuged. Homogenate buffer (10 mL, 10 mM NaHCO3, 5 mM EDTA, pH 7.5, 0.5 mM PMSF (phenylmethylsulfonyl fluoride), 20 mg/L leupeptin, 4 mg/L E-64, 1 mg/L pepstatin A) was added to the pellets of the cells and, using Polytron Homogenizer, the mixture was homogenated. The supernatant obtained after centrifugation at 400×g for 10 min was further centrifuged at 100,000×g for 1 hr to give precipitate of the membrane fraction. The precipitate were suspended in 2 mL of assay buffer [20 mM Tris-HCl (pH 7.5), 5 mM EDTA, 0.5 mM PMSF, 20 mg/L leupeptin, 4 mg/L E-64, 1 mg/L pepstatin A]. The membrane fractions were suspended in assay buffer to a protein concentration of 2 mg/mL, and after dispensing, preserved at −80° C. and used upon thawing each time when in use.
The MCHR1 ligand binding inhibitory activity of the test compound was determined as follows. An MCHR1-expressing CHO cellular membrane fraction (175 μL) diluted with an assay buffer was dispensed to a 96 well polypropylene plate (3363, Corning). DMSO solution (2 μL), 100 μm cold MCH(1-19) diluted with DMSO solution (2 μL), or a test compound solution diluted with DMSO solution to various concentrations (2 μL) was added, and lastly, [^125I]-MCH(4-19) diluted with assay buffer (25 μL) was added to each well. The reaction mixture was reacted at 25° C. for 1 hr with stirring, and the reaction mixture was filtered by suction using a glass filter plate (GF/C, PerkinElmer). The filter was washed 3 times with a wash solution (300 μL, 50 mM Tris-HCl buffer, pH 7.5). The glass filter plate was dried, a liquid scintillator was added at 25 μL/well, and the residual radioactivity was measured by TopCount (PerkinElmer). The binding inhibition rate of the test compound was calculated by the following formula. Binding inhibition (%)=(radioactivity upon addition of test compound and hot MCH−radioactivity upon addition of cold MCH and hot MCH solution)/(radioactivity upon addition of DMSO solution and hot MCH−radioactivity upon addition of cold MCH and hot MCH solution)×100

[2] = target: T1, human MCHR1; assay: MCH receptor 1 antagonistic activity, Ca2+ mobilization assay in human MCHR1-expressing CHO cells; type: cell-based; details: test compound 0.1 μM; human MCHR1-expressing CHO cell; ligand MCH (4-19) peptide 20 nM; Fluo4 fluorescence; read-out: Inhibition rate (%)
Procedure: Measurement of MCH Receptor 1 Antagonistic Activity of Test Compound Using Ca^2+ Mobilization Assay
CHO cell (CHO dhfr^−, clone #4) expressing a recombinant human MCHR1 gene for Ca^2+ mobilization assay was prepared by us. The cell was cultured in MEMα medium [445 mL of MEMα medium without nucleic acid and added with 5 mL of Penicillin-Streptomycin (Invitrogen) and 50 mL of dialyzed fetal bovine serum]. An integrated dispensing function fluorometer (CellLux, PerkinElmer) was used for Ca^2+ mobilization assay. CHO cells were sown in a 96 well plate (type 3904, Corning) with a black plate wall and clear well bottom at a density of 20000 cells/well, and cultured in an incubator for about 24 hr at 5% CO2, 37° C. The medium was removed, and the cells were washed with phosphate buffered saline (PBS). A Ca^2+ indicator dye reagent (DOJINDO LABORATORIES, Ca screening no-wash kit Fluo4) was added at 90 μL/well, and the dye was allowed to penetrate into the cell for 30 min in an incubator at 5% CO2, 37° C. The plate was set on a plate reader, a test compound solution diluted with an assay buffer [10 mM HEPES (pH 7.4), 1× assay buffer containing 0.1% BSA (DOJINDO LABORATORIES, attached to Ca screening no-wash kit Fluo4)] or DMSO solution was added at 10 μL/well, and ligand MCH (4-19) peptide (final concentration 20 nM) diluted with assay buffer or DMSO was added at 50 μL/well, during which changes in intracellular fluorescence were measured at 2 second intervals. The antagonistic activity of the test compound was calculated and shown as an inhibition rate (%) wherein the intracellular fluorescence activity resulting from the stimulation by the addition of ligand MCH (4-19) peptide was 100% and that of the well added with DMSO solution alone was 0%.

[3] = test system: Dietary obese male F344/Jcl rats; assay: Anorectic effect (food intake) in dietary obese male F344/Jcl rats; type: in vivo; details: Rattus norvegicus, 48 h; oral, 0.5% methylcellulose suspension (5 mg/mL) at 2 mL/kg, on start day and evening of next day; food intake from initial administration to 2 days later; vs control group; read-out: Food intake inhibition rate (%)
Text: Evaluation of Anorectic Effect Using Dietary Obese Male F344/Jcl Rats
Dietary obese male F344/Jcl rats (42-57-week-old) reared on a high-fat diet (Research Diets: D12451) from 5 weeks of age were used. From before the start of experiment, the rats were independently raised, a powder high-fat diet (Research Diets: D12451M) was given, tap water was orally administered for acclimation, and thereby the rats were habituated. The food intake from the evening of the day before the start of experiment to the next morning was measured, and the rats were grouped based on the food intake and the body weight of the previous day as indices. On the day of the start of experiment and in the evening of the next day, 0.5% methylcellulose solution was orally administered to the control group, and 0.5% methylcellulose suspension (5 mg/mL) of the test compound was orally administered to the compound administration group at 2 mL/kg (6 per group for both control group and compound administration group). The food intake from the initial administration to 2 days later was measured. The food intake inhibition rate of each compound administration group to the control group was calculated.

T1 sequence (Q99705 whole entry): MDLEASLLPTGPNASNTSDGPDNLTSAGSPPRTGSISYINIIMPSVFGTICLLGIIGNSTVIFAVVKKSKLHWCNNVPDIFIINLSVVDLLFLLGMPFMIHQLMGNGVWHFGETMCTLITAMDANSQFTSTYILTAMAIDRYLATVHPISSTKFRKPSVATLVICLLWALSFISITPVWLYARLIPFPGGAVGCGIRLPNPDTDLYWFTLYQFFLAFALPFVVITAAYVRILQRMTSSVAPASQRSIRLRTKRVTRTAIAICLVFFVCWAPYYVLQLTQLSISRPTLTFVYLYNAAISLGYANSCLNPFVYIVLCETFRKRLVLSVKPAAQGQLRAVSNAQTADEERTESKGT

SMILES	inhibition at 0.1 µM [1] [%]	melting point [°C]	inhibition at 0.1 µM [2] [%]	inhibition in vivo at 10 mg/kg [3] [%]
Cn1c(CNCC2CCOCC2)cc2cc(NC(=O)c3ccc(OC[C@@H]4CCCO4)cc3)ccc21 [Example 17, N-(1-methyl-2-{[(tetrahydro-2H-pyran-4-ylmethyl)amino]methyl}-1H-indol-5-yl)-4-[(2S)-tetrahydrofuran-2-ylmethoxy]benzamide]	97	157 to 158	97	14.7
Cc1c(NC(=O)c2ccc(OCC3CC3)cc2)ccc2c1cc(CNCC(C)(C)O)n2C [Example 50, 4-(cyclopropylmethoxy)-N-(2-{[(2-hydroxy-2-methylpropyl)amino]methyl}-1,4-dimethyl-1H-indol-5-yl)benzamide]	97	175 to 176	97	26.5
Cc1c(NC(=O)c2ccc(OC[C@@H]3CCCO3)cc2)ccc2c1cc(CN[C@H]1CC[C@](C)(O)CC1)n2C [Example 53-2, N-(2-{[(trans-4-hydroxy-4-methylcyclohexyl)amino]methyl}-1,4-dimethyl-1H-indol-5-yl)-4-[(2S)-tetrahydrofuran-2-ylmethoxy]benzamide]	97	200	96	–
Cc1c(NC(=O)c2ccc(OC[C@@H]3CCCO3)cc2)ccc2c1cc(CNCC1CCOCC1)n2C [Example 55, N-(1,4-dimethyl-2-{[(tetrahydro-2H-pyran-4-ylmethyl)amino]methyl}-1H-indol-5-yl)-4-[(2S)-tetrahydrofuran-2-ylmethoxy]benzamide]	98	166 to 167	99	22.7
Cc1c(NC(=O)c2ccc(OC[C@@H]3CCCO3)cc2F)ccc2c1cc(CNCC(C)(C)O)n2C [Example 60, 2-fluoro-N-(2-{[(2-hydroxy-2-methylpropyl)amino]methyl}-1,4-dimethyl-1H-indol-5-yl)-4-[(2S)-tetrahydrofuran-2-ylmethoxy]benzamide]	98	118	97	19.9
Cc1c(NC(=O)c2ccc(OC[C@@H]3CCCO3)cc2)ccc2cc(CNCC3CCOCC3)n(C)c12 [Example 83, N-(1,7-dimethyl-2-{[(tetrahydro-2H-pyran-4-ylmethyl)amino]methyl}-1H-indol-6-yl)-4-[(2S)-tetrahydrofuran-2-ylmethoxy]benzamide]	99	197 to 198	96	–
Cc1c(NC(=O)c2ccc(OC[C@@H]3CCCO3)cc2)ccc2cc(CN[C@H]3CC[C@](C)(O)CC3)n(C)c12 [Example 84, N-(2-{[(trans-4-hydroxy-4-methylcyclohexyl)amino]methyl}-1,7-dimethyl-1H-indol-6-yl)-4-[(2S)-tetrahydrofuran-2-ylmethoxy]benzamide]	101	171 to 172	97	12.1
Cc1c(NC(=O)c2ccc(OC[C@@H]3CCCO3)cc2F)ccc2cc(CN[C@H]3CC[C@](C)(O)CC3)n(C)c12 [Example 88, 2-fluoro-N-(2-{[(trans-4-hydroxy-4-methylcyclohexyl)amino]methyl}-1,7-dimethyl-1H-indol-6-yl)-4-[(2S)-tetrahydrofuran-2-ylmethoxy]benzamide]	95	131 to 132	98	17.5
